Reference: patent US20150309031A2, “COMPOSITIONS AND METHODS FOR PROGNOSIS AND TREATMENT OF CANCER” (NOVAZOI THERANOSTICS, priority 2013, published 2015)

Columns and labels:
[1] = target: T1, KIFC1/microtubule (MT) binary complex (Homo sapiens, UniProt Q9BW19); conditions: read-out: Ki (ATP-competitive, MT-noncompetitive inhibition of MT-stimulated KIFC1 enzymatic activity); cited from earlier work
T1 sequence (Q9BW19 1-673): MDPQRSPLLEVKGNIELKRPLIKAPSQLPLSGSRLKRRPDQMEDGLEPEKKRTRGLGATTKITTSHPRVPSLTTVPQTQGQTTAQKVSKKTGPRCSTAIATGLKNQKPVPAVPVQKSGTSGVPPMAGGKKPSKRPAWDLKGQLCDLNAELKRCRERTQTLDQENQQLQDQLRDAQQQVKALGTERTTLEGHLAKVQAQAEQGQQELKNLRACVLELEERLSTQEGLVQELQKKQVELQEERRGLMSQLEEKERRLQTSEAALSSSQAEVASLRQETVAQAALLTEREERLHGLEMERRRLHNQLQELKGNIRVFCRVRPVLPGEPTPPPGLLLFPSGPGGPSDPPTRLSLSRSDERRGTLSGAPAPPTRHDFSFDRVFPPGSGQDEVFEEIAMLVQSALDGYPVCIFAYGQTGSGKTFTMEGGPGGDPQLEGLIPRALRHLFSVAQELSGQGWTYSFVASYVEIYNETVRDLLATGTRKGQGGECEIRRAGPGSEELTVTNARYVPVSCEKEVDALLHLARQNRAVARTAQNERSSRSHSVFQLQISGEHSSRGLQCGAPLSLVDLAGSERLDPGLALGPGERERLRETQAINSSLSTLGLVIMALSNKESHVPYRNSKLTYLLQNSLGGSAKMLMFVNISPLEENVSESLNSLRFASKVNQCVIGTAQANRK

[2] = tested on: BT-549 breast cancer cells; conditions: BT-549 cells with amplified centrosomes; cited from earlier work
[3] = tested on: human dermal fibroblasts (HDFs); test: Centrosome amplification (CA) by microscopy, HDFs; assay type: cell-based; conditions: any concentration or time point assessed
Method: (§1) Consequently, CA was assessed in cultures treated with different concentrations of declustering drugs for 6, 12, 18, or 24 h and untreated controls via microscopy. Centrosomes were identified by γ-tubulin and centrin-2 colocalization at discrete foci. […] The peak percent CA detected over 24 h is shown in FIG. 6 (only statistically significant (P<0.05) increases over control values are represented in the Figures). Representative confocal micrographs of CA in interphase and mitotic cells, both control and drug treated, are depicted in FIG. 7. No significant correlations between the degree of CA (FIG. 5A) and the expression levels of PLK4, Cyclin E, and Aurora A were found (FIG. 4).
(§2) To determine whether the CA-inducing activity of declustering drugs is restricted to cancer cells, two non-malignant cell lines, mammary fibrocystic (MCF10A) cells and adult human dermal fibroblasts were treated with these drugs. Neither one of RBN, GF or PJ induced CA or cell death (Table 8) in these cell lines. […] In comparison, 10 and 25 μM RBN increased peak CA over controls in interphase cells (p<0.001 and p=0.001, respectively), with the lower concentration dramatically augmenting peak CA to 56% of cells versus 15% for the higher dose (FIG. 9B). Only 10 but not 25 μM RBN increased the extent of CA in mitotic cells, and this upregulation was only slight (10%, p=0.041).

[4] = tested on: adult human dermal fibroblasts (HDF); test: subG1 (hypodiploid) fraction by flow cytometry, HDFs; assay type: cell-based
HeLa cells [5] = test: subG1 (hypodiploid) fraction by flow cytometry, HeLa cells; assay type: cell-based
Method: (§3) Trypsinized cells were resuspended in PBS at 10^6 cells/ml. Cells were then fixed by addition of ice-cold 70% ethanol. Ethanol-fixed cells were kept overnight at 4° C. before staining. Cells were pelleted and washed twice with PBS. Cell pellets were incubated for an hour at room temperature with mouse anti-MPM-2 antibody (Millipore, Mass., USA), followed by 1 h incubation with Alexa-488 anti-mouse secondary antibody (Life Technologies, NY, USA). Finally cells were washed, pelleted and resuspended in propidium iodide-containing isotonic buffer (0.1 mg/mL) and 0.5% Triton X-100. Cell cycle distribution was determined by flow cytometry using an LSR Fortessa Flow cytometer (BD Biosciences, CA, USA) and analyzed using Flowjo software (Tree Star, OR, USA). […] The duration, highest degree, and rapidity of onset of MA varied between drugs, drug concentrations, and cell lines (FIGS. 2A, 2B). In general, the maximum MA achieved was less pronounced in Nos- and PJ-treated cells (FIGS. 2A, 2B). Drug-induced onset of MA was corroborated by substantial increases in cyclin B1 levels in all cell lines (FIG. 2C). […] Instances where the subG1 fraction was elevated without cleaved caspase-3 may either represent caspase-independent cell death or the presence of hypodiploid cells whose fate is unclear.

[6] = tested on: mammary fibrocystic (MCF10A) cells; test: subG1 (hypodiploid) fraction by flow cytometry, MCF10A cells; assay type: cell-based; conditions: for change of peak subG1 percent compared to controls (in words): MCF10A cells; for Peak subG1 percent over 48 h: MCF10A
MCF10A cells = test: Centrosome amplification (CA) by microscopy, MCF10A cells; assay type: cell-based; conditions: for change of CA over control levels (in words): interphase and mitotic cells, over 24 h
Method: as §1, §2

231 cells = test: Mitotic arrest (MA) by flow cytometry, 231 cells; assay type: cell-based; conditions: 10 μM
Method: FIGS. 2A-2C depict mitotic arrest (MA) phenotypes observed upon treatment with putative centrosome declustering drugs. […] Declustering drugs included Nos, BN, RBN, PJ, and GF, all at 10 and 25 μM except GF, which was used at 25 and 50 μM, and cell lines included 231, PC3, and HeLa. […] In general, MA increased from 0 h to a peak near 24 h, followed by a decline in MA that coincided with increases in subG1 fractions. Results are representative of three independent experiments. […] Drugs are ranked in order of increasing peak subG1 from bottom to top along the y axis. […] Increased levels of both cyclins compared with controls (0 h) were detected across cell lines with variable expression patterns depending on the drug and cell line. To evaluate apoptosis, cleaved caspase-3 (C. Caspase-3) was immunoblotted and eventual increases over controls were universally detected, typically by 24 h.
To evaluate the impact of putative declustering drugs on cell cycle progression and hypodiploidy (<2N DNA content, which may indicate apoptotic cells), MDA-MB-231 (231), PC3, and HeLa cells were treated with different concentrations of declustering drugs, stained with propidium iodide, labeled with anti-MPM2 antibody, and then assessed by flow cytometry at multiple time points over 48 h. […]

MDA-MB-231 (231) cells = test: subG1 (hypodiploid) fraction by flow cytometry, 231 cells; assay type: cell-based
Method: as §3

PC3 cells = test: subG1 (hypodiploid) fraction by flow cytometry, PC3 cells; assay type: cell-based
Method: as §3

[7] = tested on: MDA-MB-231 (231), PC3, and HeLa cells; test: Mitotic arrest (MA) by flow cytometry (MPM2/PI), across cell lines; assay type: cell-based; conditions: coarse-grained categories
Method: Trypsinized cells were resuspended in PBS at 10^6 cells/ml. Cells were then fixed by addition of ice-cold 70% ethanol. Ethanol-fixed cells were kept overnight at 4° C. before staining. Cells were pelleted and washed twice with PBS. Cell pellets were incubated for an hour at room temperature with mouse anti-MPM-2 antibody (Millipore, Mass., USA), followed by 1 h incubation with Alexa-488 anti-mouse secondary antibody (Life Technologies, NY, USA). Finally cells were washed, pelleted and resuspended in propidium iodide-containing isotonic buffer (0.1 mg/mL) and 0.5% Triton X-100. Cell cycle distribution was determined by flow cytometry using an LSR Fortessa Flow cytometer (BD Biosciences, CA, USA) and analyzed using Flowjo software (Tree Star, OR, USA).
To evaluate the impact of putative declustering drugs on cell cycle progression and hypodiploidy (<2N DNA content, which may indicate apoptotic cells), MDA-MB-231 (231), PC3, and HeLa cells were treated with different concentrations of declustering drugs, stained with propidium iodide, labeled with anti-MPM2 antibody, and then assessed by flow cytometry at multiple time points over 48 h. […] The duration, highest degree, and rapidity of onset of MA varied between drugs, drug concentrations, and cell lines (FIGS. 2A, 2B). In general, the maximum MA achieved was less pronounced in Nos- and PJ-treated cells (FIGS. 2A, 2B). […]

HDFs and MCF10A cells = test: Spindle multipolarity (MP) in non-malignant cell lines; assay type: cell-based
HeLa cells [8] = test: Centrosome amplification (CA) by microscopy, HeLa cells; assay type: cell-based; conditions: interphase, 25 μM
Method: Consequently, CA was assessed in cultures treated with different concentrations of declustering drugs for 6, 12, 18, or 24 h and untreated controls via microscopy. […] The peak percent CA detected over 24 h is shown in FIG. 6 (only statistically significant (P<0.05) increases over control values are represented in the Figures). Representative confocal micrographs of CA in interphase and mitotic cells, both control and drug treated, are depicted in FIG. 7. […] To better understand the “potency” of drug-induced CA with time, the average fold change in CA over controls over 24 h was assessed (FIG. 5A), whereby the extent of CA across time points (i.e., 6, 12, 18, and 24 h) was averaged and then divided by the extent of CA in control (i.e., 0 h). […] For Nos and BN, there was no major difference in CA levels in interphase versus mitotic cells.

Row | Compound | change of CA over controls (in words) [3] | Peak subG1 percent over 48 h ([4]; 10 μM) [%] | Peak subG1 percent over 48 h ([4]; 25 μM) [%] | Peak subG1 percent over 48 h (HeLa cells [5]; 10 μM) [%] | Peak subG1 percent over 48 h (HeLa cells [5]; 25 μM) [%] | change of peak subG1 percent compared to controls (in words) [6] | Peak subG1 percent over 48 h ([6]; 10 μM) [%] | Peak subG1 percent over 48 h ([6]; 25 μM) [%] | change of CA over control levels (in words) (MCF10A cells) | Peak subG1 percent over 48 h (MDA-MB-231 (231) cells; 10 μM) [%] | Peak subG1 percent over 48 h (MDA-MB-231 (231) cells; 25 μM) [%] | maximum subG1 fraction relative to control (MDA-MB-231 (231) cells; 25 μM) [× control] | Peak subG1 percent over 48 h (PC3 cells; 10 μM) [%] | Peak subG1 percent over 48 h (PC3 cells; 25 μM) [%] | maximum subG1 fraction relative to control (PC3 cells; 25 μM) [× control] | further results
1 | CCCc1cc(C(=O)N[C@H](Cc2ccc(-c3cccc(OC(F)(F)F)c3)nc2)C(=O)N[C@@H]2CCNC2)sc1C [AZ82] |  |  |  |  |  |  |  |  |  |  |  |  |  |  |  | Ki [1]: 43 nM; centrosome declustering [2]: causes centrosome declustering
2 | COc1ccc2c(c1OC)C(=O)O[C@@H]2[C@H]1c2c(c(Br)c3c(c2OC)OCO3)CCN1C [BN, 9-bromonoscapine] | did not significantly increase the extent of CA over controls | 16.5 | 20.4 | 42.0 | 54.9 | did not cause a significant increase in peak subG1 percent compared to controls | 3.5 | 3.0 | neither concentrations of Nos or BN significantly increased CA over control levels | 32.5 | 65.2 | 9.3 | 46.0 | 42.8 | 9.2 | maximum subG1 fraction relative to control (HeLa cells [5]; 25 μM): 4.4 × control; mitotic arrest (in words) (231 cells): did not cause any MA
3 | CN(C)CC(=O)Nc1ccc2[nH]c(=O)c3ccccc3c2c1 [PJ, PJ-34] | no significant impact on CA in HDFs | 13.6 | 28.2 | 48.5 | 64.4 | did not cause a significant increase in peak subG1 percent compared to controls | 6.9 | 9.1 | increased the peak extent of CA in interphase and mitotic cells | 37.0 | 55.0 | 10.4 | 62.4 | 48.4 | 7.9 | maximum subG1 fraction relative to control (HeLa cells [5]; 10 μM): 4.8 × control; peak extent of CA in interphase cells (MCF10A cells; interphase, 10 μM): 8%; mean time to peak MA (MA:TRH) [7]: ~12 h; induction of MP over control levels (HDFs and MCF10A cells): significantly induce MP over control levels; fold increase in peak CA extent, interphase cells (HeLa cells [8]): ~20 fold; peak / final extent of CA in interphase cells (HeLa cells [8]): < 20%
